According to patent US4820701A, “Penam derivatives” (Beecham Group p.l.c., priority 1987, dated 1989):
Values after ≈ are worked out from the molar mass of the structure shown. Counter-ions that a name gives are not always drawn.

Tests used:
Test in all cases: MIC by serial dilution in agar
Format in all cases: cell-based
E. coli DC RTEM = settings: Escherichia coli
Description: (§1) Minimum Inhibitory concentration (MIC) values of compounds of the invention against E. coli JT425 and DC RTEM, K. Pneumoniae T767 and P. aeruginosa 10662 and K79961. were determined by serial dilution in Iso-sensitest Agar (from Oxoid Ltd., Basingstoke, England). The plates were inoculated with 10^4 colony forming units and incubated overnight at 37° C. The MIC values recorded in Table 1 were the lowest concentration of antibiotic to inhibit growth. Comparative data for Piperacillin which is the compound 6β-[D-2-[(4-ethyl-2,3-dioxopiperazin-1-yl)carbonylamino]-2-phenylacetamido]-penicillanic acid, sodium salt and for the compound 6α-formamido-6β-[D-2-[(4-ethyl-2,3-dioxopiperazin-1-yl)carbonylamino]-2-phenylacetamido]-penicillanic acid, sodium salt (Compound A) disclosed in U.K. GB Pat. No.-2107307B, are also given.

P. aeruginosa K79961 = settings: Pseudomonas aeruginosa, Iso-sensitest Agar, 10^4 colony forming units, overnight at 37° C
Description: as §1

P. aeruginosa 10662 = settings: Pseudomonas aeruginosa, Iso-sensitest Agar, 10^4 colony forming units, overnight at 37° C
Description: as §1

E. coli JT 425 = settings: Escherichia coli, JT425; Iso-sensitest Agar, 10^4 colony forming units, overnight at 37° C
Description: as §1

K. pneumoniae T767 = settings: Klebsiella pneumoniae, Iso-sensitest Agar, 10^4 colony forming units, overnight at 37° C
Description: as §1

| SMILES | MIC (E. coli DC RTEM) [µg/mL] | MIC (P. aeruginosa K79961) [µg/mL] | MIC (P. aeruginosa 10662) [µg/mL] | MIC (E. coli JT 425) [µg/mL] | MIC (K. pneumoniae T767) [µg/mL] |
| --- | --- | --- | --- | --- | --- |
| CCN1CCN(C(=O)N[C@@H](C(=O)N[C@]2(NC=O)C(=O)N3[C@@H](C(=O)O)C(C)(C)S[C@@H]32)c2ccccc2)C(=O)C1=O [Compound A, 6α-formamido-6β-[D-2-[(4-ethyl-2,3-dioxopiperazin-1-yl)carbonylamino]-2-phenylacetamido]-penicillanic acid, sodium salt, reference compound] | 4 | 2 | 16 | 8 | 4 |
| CCN1CCN(C(=O)N[C@@H](C(=O)N[C@@H]2C(=O)N3[C@@H]2S[C@@](C)(COC(=O)c2ccc(OC(C)=O)c(OC(C)=O)c2)[C@@H]3C(=O)O)c2ccccc2)C(=O)C1=O [Example 3, Sodium 2β-(3,4-diacetoxybenzoyloxy)methyl-6β-[R,2-(4-ethyl-2,3-dioxopiperazin-1-yl)carbonylamino-2-phenylacetamido]-2α-methylpenam-3-carboxylate] | 4 | < 0.03 | < 0.03 | 1 | 0.25 |
| CCN1CCN(C(=O)N[C@@H](C(=O)N[C@]2(NC=O)C(=O)N3[C@@H](C(=O)O)[C@](C)(COC(=O)c4ccc(O)c(O)c4)S[C@@H]32)c2ccccc2)C(=O)C1=O [Example 2, Sodium 6β-[R,2-(4-ethyl-2,3-dioxopiperazin-1-yl)carbonylamino-2-phenylacetamido]-6α-formamido-2β-(3,4-dihydroxybenzoyloxy)methyl-2α-methylpenam-3-carboxylate] | < 0.03 | < 0.03 | 0.12 | 0.5 | 0.12 |
| CCN1CCN(C(=O)N[C@@H](C(=O)N[C@]2(NC=O)C(=O)N3[C@@H](C(=O)O)[C@](C)(COC(=O)c4ccc(OC(C)=O)c(OC(C)=O)c4)S[C@@H]32)c2ccccc2)C(=O)C1=O [Example 1] | 0.12 (≈ 0.151 µM) | 0.06 (≈ 0.0753 µM) | 0.25 (≈ 0.314 µM) | 0.5 (≈ 0.628 µM) | 0.12 (≈ 0.151 µM) |
| CCN1CCN(C(=O)N[C@@H](C(=O)N[C@@H]2C(=O)N3[C@@H]2SC(C)(C)[C@@H]3C(=O)O)c2ccccc2)C(=O)C1=O [Piperacillin, 6β-[D-2-[(4-ethyl-2,3-dioxopiperazin-1-yl)carbonylamino]-2-phenylacetamido]-penicillanic acid, sodium salt, reference compound] | > 128 | > 0.06 | 2 | 16 | 2 |
